# Paper PMC10177727 (Clinical Drug Investigation, 2023)
# Where two headings read alike, the source gives them in different places.
# Columns and labels:
# CYP3A [1] = assay: clinical; conditions: human, in vivo, po, 2 mg, midazolam 2 mg alone, Day -2
# [2] = Safety and tolerability: treatment-emergent adverse events; type: in vivo, healthy Japanese adult participants; conditions: midazolam cohort (ensitrelvir 375/125 mg + midazolam 2 mg), N = 14
# CYP3A [3] = conditions: midazolam with ensitrelvir 375/125 mg / midazolam alone, Day 5/Day -2
# CYP3A [4] = conditions: with ensitrelvir 750/250 mg; cited from earlier work
# CYP3A [5] = conditions: with itraconazole, prednisolone 20 mg administered on Day 5; cited from earlier work
# CYP3A [6] = assay: clinical; conditions: human, in vivo, po, 10 mg; for half-life: t1/2,z GLS mean
# CYP3A [7] = test system: CYP3A
# [8] = 5th day after the last ensitrelvir dose / prednisolone alone, Day 9/Day -2
# [9] = 10th day after the last ensitrelvir dose / prednisolone alone, Day 14/Day -2
# [10] = prednisolone with ensitrelvir 750/250 mg / prednisolone alone, Day 5/Day -2
smiles,measurement,setting,value
Cc1ncc2n1-c1ccc(Cl)cc1C(c1ccccc1F)=NC2 [Midazolam],AUC(0-inf),CYP3A [1]; AUC0–inf GLS mean,24.1 ng·h/mL
same,AUC(0-t),CYP3A [1]; AUC0–last GLS mean,23.4 ng·h/mL
same,Cmax,CYP3A [1]; Cmax GLS mean,12.6 ng/mL
same,MRT,CYP3A [1]; MRT GLS mean,3.18 h
same,half-life,"CYP3A [1]; t1/2,z GLS mean",194 min
same,k el,CYP3A [1]; λz GLS mean,5.94e-05 s⁻¹
same,"Diarrhea, events related to midazolam",[2],1
same,"Somnolence, events related to midazolam",[2],8
same,AUC0–inf GLS mean ratio (90% CI),CYP3A [3],6.7685 (6.1572–7.4404)
same,AUC0–last GLS mean ratio (90% CI),CYP3A [3],6.9011 (6.2722–7.5931)
same,Cmax GLS mean ratio (90% CI),CYP3A [3],2.8012 (2.3798–3.2971)
same,MRT GLS mean ratio (90% CI),CYP3A [3],2.6506 (2.4623–2.8532)
same,"t1/2,z GLS mean ratio (90% CI)",CYP3A [3],2.2750 (2.0373–2.5406)
same,λz GLS mean ratio (90% CI),CYP3A [3],0.4396 (0.3936–0.4909)
same,increase in the plasma exposure of midazolam,CYP3A [4],8.80 fold
same,increased ratio of Cmax of midazolam,CYP3A [4],2.78 fold
C[C@]12C=CC(=O)C=C1CC[C@@H]1[C@@H]2[C@@H](O)C[C@@]2(C)[C@H]1CC[C@]2(O)C(=O)CO [Prednisolone],AUC of prednisolone increase,CYP3A [5],1.24 fold
same,AUC(0-inf),"CYP3A [6]; AUC0–inf GLS mean, prednisolone 10 mg alone, Day -2",1090 ng·h/mL
same,AUC(0-t),"CYP3A [6]; AUC0–last GLS mean, prednisolone 10 mg alone, Day -2",1040 ng·h/mL
same,Cmax,"CYP3A [6]; Cmax GLS mean, prednisolone 10 mg alone, Day -2",243 ng/mL
same,MRT,"CYP3A [6]; MRT GLS mean, prednisolone 10 mg alone, Day -2",4.26 h
same,half-life,"CYP3A [6]; prednisolone 10 mg alone, Day -2",153 min
same,half-life,"CYP3A [6]; prednisolone 10 mg, 5th day after the last ensitrelvir dose, Day 9",163 min
same,half-life,"CYP3A [6]; prednisolone 10 mg, 10th day after the last ensitrelvir dose, Day 14",160 min
same,k el,"CYP3A [6]; λz GLS mean, prednisolone 10 mg alone, Day -2",7.56e-05 s⁻¹
same,AUC0–inf GLS mean ratio (90% CI),CYP3A [7]; [8],1.1243 (1.0973–1.1521)
same,AUC0–last GLS mean ratio (90% CI),CYP3A [7]; [8],1.1142 (1.0842–1.1451)
same,Cmax GLS mean ratio (90% CI),CYP3A [7]; [8],1.0953 (0.9865–1.2160)
same,MRT GLS mean ratio (90% CI),CYP3A [7]; [8],1.0569 (1.0095–1.1065)
same,"t1/2,z GLS mean ratio (90% CI)",CYP3A [7]; [8],1.0660 (1.0349–1.0980)
same,λz GLS mean ratio (90% CI),CYP3A [7]; [8],0.9381 (0.9107–0.9663)
same,AUC0–inf GLS mean ratio (90% CI),CYP3A [7]; [9],1.0396 (1.0146–1.0653)
same,AUC0–last GLS mean ratio (90% CI),CYP3A [7]; [9],1.0267 (0.9990–1.0552)
same,Cmax GLS mean ratio (90% CI),CYP3A [7]; [9],0.9927 (0.8941–1.1021)
same,MRT GLS mean ratio (90% CI),CYP3A [7]; [9],1.0419 (0.9952–1.0908)
same,"t1/2,z GLS mean ratio (90% CI)",CYP3A [7]; [9],1.0474 (1.0169–1.0789)
same,λz GLS mean ratio (90% CI),CYP3A [7]; [9],0.9547 (0.9269–0.9834)
same,AUC0–inf GLS mean ratio (90% CI),CYP3A [7]; [10],1.2476 (1.2176–1.2784)
same,AUC0–last GLS mean ratio (90% CI),CYP3A [7]; [10],1.2408 (1.2073–1.2752)
same,Cmax GLS mean ratio (90% CI),CYP3A [7]; [10],1.1141 (1.0035–1.2369)
same,MRT GLS mean ratio (90% CI),CYP3A [7]; [10],1.1065 (1.0569–1.1584)
same,"t1/2,z GLS mean ratio (90% CI)",CYP3A [7]; [10],1.1160 (1.0835–1.1496)
same,λz GLS mean ratio (90% CI),CYP3A [7]; [10],0.8960 (0.8699–0.9230)
